According to patent publication US20140296143A1, “Angiotensin-(1-7) As A Chemoprevention Agent” (Wake Forest Innovations, priority 2008, published 2014):

How the values were obtained:
A549 lung cancer cells = assay: Serum-stimulated ^3H-thymidine incorporation, A549; type: cell-based, human; conditions: A549, 1% FBS, daily addition of 100 nM
Description: Unless otherwise stated, cells were grown in DMEM with 10% fetal bovine serum (FBS), 100 μg/mL penicillin and 100 units/mL streptomycin in a humidified 37° C. incubator gassed with 5% CO2 and 95% room air. Cells were grown to subconfluence in either 24-well cluster plates or 100 mm dishes and made quiescent by treatment for 48 h with serum-depleted growth media, prior to the experiments outlined below to measure cell growth (^3H-thymidine incorporation), cell signaling or apoptosis.
Subsequently, the cell monolayer was washed with cold phosphate-buffered saline (PBS; 50 mM NaPO4, 120 mM NaCl, pH=7.2). The adherent cells were precipitated with cold 10% TCA (4° C. for 30 min) and dissolved in 0.2% SDS in 0.1 N NaOH. Incorporated ^3H-thymidine was determined by liquid scintillation spectrometry, as previously described (Freeman, E. J. et al., Hypertension, 1996, 28:104-108). Growth inhibition was defined as a reduction in the amount of ^3H-thymidine incorporation as compared to the mitogen-stimulated controls.

caspase-8 = assay: Caspase-8 activity in A549 cell lysates, fluorometric assay; type: cell-based, human; conditions: A549 cells, 100 nM; maximal at 16 and 24 h
Description: The specificity of the activity of each caspase substrate was also verified by assays in the presence of specific inhibitors. […] Caspase-3 activity was measured by a fluorometric assay using Ac-DEVD-AFC (Acetylated-Asp-Glu-Val-Asp-7-amino-4-trifluoromethylcoumarin) (SEQ ID NO: 9) as a specific substrate for caspase-3 and Z-DEVD-CHO as a selective caspase-3 inhibitor. Caspase-8 activity was measured by a fluorometric assay using Ac-LETD-AFC (Acetylated-Leu-Glu-Thr-Asp-7-amino-4-trifluoromethylcoumarin) (SEQ ID NO: 10) as a specific substrate and Z-LETD-CHO as a selective caspase-8 inhibitor. The data are presented as relative fluorescence units (RFU).

[1] = system: MAP kinase kinase 5 (MEK5); assay: MEK5 expression in SK-LU-1 cells by RT-PCR and Western analysis; type: cell-based, human; conditions: SK-LU-1, 1% serum, 10 nM, 4 and 8 h
Description: RNA, isolated from cells or tissue, using the TRIzol reagent (GIBCO Invitrogen, Carlsbad, Calif.), was subjected to reverse transcriptase/real-time polymerase chain reaction as previously described (Tallant et al., Am. J. Physiol. Heart Circ. Physiol., 2005, 289:1560-1566). All reactions were performed in triplicate and 18S ribosomal RNA, amplified using the TaqMan Ribosomal RNA Control Kit (Applied Biosystems), served as an internal control. The results were quantified as Ct values, where Ct is defined as the threshold cycle of PCR at which amplified product is first detected, and defined as relative gene expression (the ratio of target/control). For RT-PCR, total RNA was isolated using the Atlas Pure Total RNA Labeling System (Clontech Laboratories, Inc). The RNA concentration was quantified by UV spectroscopy and any degradation assessed by ethidium bromide staining intensity of 28S and 18S ribosomal RNA following agarose gel electrophoresis. […] Following PCR, the amplification products were separated by polyacrylamide gel electrophoresis, visualized by autoradiography, and analyzed using the MCID imaging system.
Proteins were separated electrophoretically on SDS polyacrylamide gels, transferred to polyvinyl membranes, and incubated with primary antibodies to proteins of interest. […] The density of each immunoreactive product was quantified using the MCID imaging system. […]

[2] = system: ZR-75-1 breast cancer cells; conditions: U.S. Pat. No. 7,375,073; cited from earlier work

Which “^3H-thymidine incorporation over time of treatment” value (A549 lung cancer cells) does the source give for CC[C@H](C)[C@H](NC(=O)[C@H](Cc1ccc(O)cc1)NC(=O)[C@@H](NC(=O)[C@H](CCCNC(=N)N)NC(=O)[C@@H](N)CC(=O)O)C(C)C)C(=O)N[C@@H](Cc1c[nH]cn1)C(=O)N1CCC[C@H]1C(=O)O [Ang-(1-7), Asp-Arg-Val-Tyr-Ile-His-Pro] here?
The value was “progressively reduced”.

What about the “time-dependent increase in caspase-8 activity” value (caspase-8) of the same compound?
The value was “about 2 fold”.

And the “MEK5 mRNA and protein” value [1]?
The value was “reduced”.

And the “inhibition of PDGF- or EGF-stimulated ^3H-thymidine incorporation” value [2]?
Its value is “at least 50%”.
